“Also recorded” adds a separate entry of the source.
What was measured:
p2y9 = target: T1, p2y9 (Homo sapiens, UniProt Q99677); assay: Intracellular calcium increase in four CHO clones stably expressing p2y9 (Fura-2); format: cell-based; conditions: p2y9 clones vs negative control, FIG. 15
T1 construct: expressed in transfected cells
Experimental: Then the investigation with respect to CHO clone has been carried out. Experiment of calcium incorporation was conducted in four independent CHO clones, #01, #09, #15 and #20, stably expressing p2y9. […] As a negative control, CHO cells which acquired neomycin resistance by transfected only with pCXN2.1 vector were used.
Four types of CHO clones, #01, #09, #15 and #20, stably expressing p2y9 were incubated for 24 hours in the medium of Ham's F-12 supplemented with 0.1% BSA in replacement of Ham's F-12 supplemented with 10% fetal bovine serum. The cells were then suspended in HEPES-Tyrode's buffer (140 mM NaCl, 2.7 mM KCl, 1 mM CaCl2, 12 mM NaHCO3, 5.6 mM D-glucose, 0.49 mM MgCl2, 0.37 mM NaH2PO4, and 25 mM HEPES-NaOH (pH 7.4)) containing 3 μM Fura-2 (calcium indicator) and 0.01% Cremophor EL. Cells were incubated at 37° C. for 1 hour for incorporation of Fura-2. Cells were then resuspended in HEPES-Tyrode's buffer in order to achieve a cell density of 1×10^6 cells/ml. The changes in intracellular concentrations with addition of various concentrations of LPAs were monitored by using CAF-100 spectrofluorometer (Jasco, Tokyo, Japan). As a negative control, CHO cells which acquired neomycin resistance by transfected only with pCXN2.1 vector were used.

[1] = test system: ATP receptors endogenously expressed in CHO cells; assay: ATP positive control, intracellular calcium change in CHO clones; format: cell-based; conditions: ATP 1 μM, 10 μM and 100 μM
Experimental: Over 200 lipids (Lipid Library; BIOMOL) and nucleotides were screened using CHO clones of respective receptors by monitoring changes in intracellular calcium concentrations. As positive controls for the screenings, ATP with concentrations of 1 μM, 10 μM and 100 μM were used.
CHO clones of four individual receptors such as GPR34, p2y5, p2y9 and p2y10 were seeded respectively in three 96-well plates at a density of 4×10^4 cells/well. On the following day, cells were loaded with 4 μM of Fluo-3 (calcium indicator) and incubated at 37° C. for 1 hour for incorporation of Fluo-3. Cells were then reacted with individual lipids (1 to 10 μM) contained in the Lipid Library of BIOMOL comprising over 200 kinds of lipid molecules and 17 nucleotides (1 to 100 μM) such as ATP, then time course kinetics of intracellular calcium mobilization was monitored with FLEXstation of Molecular Devices.
This enabled to confirm the relevance of the experiment.

T1 sequence (Q99677 whole entry): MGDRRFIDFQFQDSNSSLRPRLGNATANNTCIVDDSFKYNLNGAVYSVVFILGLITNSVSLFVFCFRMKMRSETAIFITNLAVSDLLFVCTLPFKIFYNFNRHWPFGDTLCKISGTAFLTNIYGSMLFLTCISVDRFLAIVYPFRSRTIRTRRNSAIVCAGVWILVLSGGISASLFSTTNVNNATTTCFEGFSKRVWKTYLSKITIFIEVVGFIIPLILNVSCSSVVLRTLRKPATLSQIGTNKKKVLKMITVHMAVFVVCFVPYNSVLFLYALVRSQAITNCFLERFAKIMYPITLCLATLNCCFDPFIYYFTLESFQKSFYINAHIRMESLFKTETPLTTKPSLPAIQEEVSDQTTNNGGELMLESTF

Nc1ncnc2c1ncn2[C@@H]1O[C@H](COP(=O)(O)OP(=O)(O)OP(=O)(O)O)[C@@H](O)[C@H]1O [ATP]
increase in intracellular calcium concentration (p2y9; ATP 10 μM): no significant difference; also recorded: no significant changes
change in intracellular calcium concentration [1]: remarkable change in intracellular calcium concentration beyond the measurable range; also recorded: changes in calcium concentration beyond the measurable range

platelet activating factor [PAF]
increase in intracellular calcium concentration (p2y9; PAF 1 μM): no significant difference; also recorded: no significant changes

thrombin
increase in intracellular calcium concentration (p2y9; thrombin 0.1 NIH units/ml): no significant difference; also recorded: no significant changes
